One assay relates to C57bl/6J Mice. The assay is described as follows: GPR120 C57bl6 mouse IPGTT. The format is in vivo. To be noted: dosed 30 min prior to glucose IP 1.5 g/kg. How it is done: (§1) Male, C57bl/6J Mice were ordered in at 8 weeks of age from Jackson Labs. Individual mice weighed anywhere in the range of 25-30 grams on study day. The mice were fasted, with removal of food occurring at 7 am on the morning of the study. Animals were moved into the room at 10:00 am, to give them time to acclimate. Glucose (insulin syringes) was drawn up either the night before or the morning of the study. Glucose was dosed (IP) at 1.5 g/kg at 7.5 ml/kg (20% glucose straight TEKNOVA, 250 ml sterile bottle w/ catalogue number G0525). Test compounds were kept spinning and were only drawn into the syringes prior to study commencement. Animals were bled via tail snip to determine basal glucose levels prior to dosing of treatments. An Ascensia BREEZE Blood Glucose Monitoring System by Bayer (using unique 10-test disks) was used for determining glucose levels. The bleeds started at approximately 12:45 pm and dosing started, at 1-minute intervals, immediately after. All groups were dosed 30 minutes prior to glucose administration at a dose volume of 10 ml/kg (the dose volume was calculated separately for each individual animal). Thirty minutes after the first dose animals were bled again for a second baseline, or T=0, and immediately dosed with glucose via an i.p. injection. The exact dose volume for glucose was also calculated separately for each individual animal. Glucose measurements were taken at −30 min prior to compound dose, at t=0 (immediately prior to glucose dose), and at 15, 30, 45, 60, 90 min post glucose dose.
(§2) Glucose values were entered into an Excel sheet and graphed in GraphPad Prism. The following were calculated from Prism: Change from −30 to 0 BSLN Glucose, Raw Glucose AUC −30 to 90 min, Delta Glucose AUC −30 to 90 min, Raw Glucose AUC 0 to 90 min, Delta Glucose AUC 0 to 90 min.

The test system of a further assay is C57b16 mouse. The assay is described as follows: C57b16 mouse OGTT. Type of assay: in vivo. Particulars: dosed 30 min prior to glucose PO 3 g/kg. How it is done:
as §1, §2
The assay design is the same as that described above for the C57b16 mouse IPGTT. The difference is that glucose was dosed PO at 3 g/kg, 7.5 ml/kg of 40% glucose.

Assay [1] concerns the target T1, long form of human GPR120 (Homo sapiens, UniProt Q5NUL3).
T1 construct: host or cells: PathHunter CHO-K1 GPR120 β-Arrestin Cell Line
T1 sequence (Q5NUL3 1-377 isoform Q5NUL3-1): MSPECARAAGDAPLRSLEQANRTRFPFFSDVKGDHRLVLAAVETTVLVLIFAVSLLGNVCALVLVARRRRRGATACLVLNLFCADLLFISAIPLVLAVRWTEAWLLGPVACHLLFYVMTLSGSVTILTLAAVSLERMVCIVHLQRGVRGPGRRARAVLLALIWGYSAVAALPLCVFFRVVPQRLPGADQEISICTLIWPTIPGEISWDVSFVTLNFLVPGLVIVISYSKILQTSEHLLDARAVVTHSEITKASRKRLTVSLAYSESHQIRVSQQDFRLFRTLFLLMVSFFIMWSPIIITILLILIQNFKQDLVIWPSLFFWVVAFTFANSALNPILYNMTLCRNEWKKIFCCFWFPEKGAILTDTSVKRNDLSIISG
As to the kind of experiment: Human GPR120 DiscoveRx PathHunter beta-arrestin assay, Procedure β-arrestin A. Particulars: PathHunter CHO-K1 GPR120 β-Arrestin cells, 3000 cells per well; read-out: hGPR120 β-arrestin A EC50. The format is cell-based. An excerpt: The binding of an agonist (medium/long chain fatty acids or small molecule agonists) to the G-protein-coupled receptor GPR120 activates phospholipase C, leading to release of intracellular Ca^+2 through the generation of inositol 1,4,5-trisphosphate (InsP3 or IP3). GPR120 activation can also trigger intracellular signaling via recruitment of Beta-Arrestin. In the present method, agonist-induced activation of the human GPR120 receptor is monitored through the use of PathHunter CHO-K1 GPR120 Beta-Arrestin Cell Line engineered by DiscoveRx, as detailed below. The cell lines are designed to co-express both the ProLink/Enzyme Donor (PK)-tagged GPCR and the Enzyme […] (EA)-tagged Beta-Arrestin fusion proteins. Upon GPR120 receptor stimulation/activation, the EA-tagged Beta-Arrestin portion is translocated to the tagged receptor, where the two enzyme fragments are brought within close proximity. Under these conditions, these fragments can interact and form an active Beta-gal enzyme complex through Enzyme Fragment Complementation (EFC). […] This in vitro assay therefore serves to assess compound agonist activity of the GPR120.
In Procedure β-arrestin A, the cell used were PathHunter CHO-K1 GPR120 β-Arrestin Cell Line, expressing the long form of human GPR120 (Genbank accession number NM_181745), with 3000 cells per well.
The selected CHO-K1 GPR120 β-Arrestin cells were cultured in Ham's F12 media supplemented with 10% fetal bovine serum (FBS), 1% Glutamine, 1×p/s, 800 μg/mL G418 and 300 μg/mL Hygromycin B (for selection). Cell stocks were maintained and grown in a sub-confluent state using standard cell culture procedures. The day before the experiment, the cells were harvested with non-enzymatic cell dissociation buffer and re-suspended in complete growth media at the desired concentration. […] The seeded plates were incubated overnight at 37° C.
On the day of the experiment, the Assay Buffer containing (a) HBSS with Ca^++ and Mg^++, (b) 20 mM HEPES, and (c) 0.1% BSA stabilizer (pH 7.4) was prepared. The growth medium was gently removed from the cell plates and 20 μL of Assay Buffer added to each well. The plate was then incubated at 37° C. for 60 min. […] Five μL of compound dilution was then added to each well and the plate incubated at 37° C. for 90 min. The detection reagents were prepared according to the manufacture's instruction. Twelve μL of the detection reagents were added to each well and the plate incubated at room temperature for 60 min.
The % activity relative to the positive control was calculated using the following equation:
The Fitting Equation was: Y=Bottom+(Top-Bottom)/(1+10^((Log EC50−X)*HillSlope)), where X is the log of the concentration and Y is the response.

The target of another assay is T2, Human GPR120 short form (Homo sapiens, UniProt Q5NUL3).
T2 construct: expressed in transfected cells
T2 sequence (Q5NUL3 1-361): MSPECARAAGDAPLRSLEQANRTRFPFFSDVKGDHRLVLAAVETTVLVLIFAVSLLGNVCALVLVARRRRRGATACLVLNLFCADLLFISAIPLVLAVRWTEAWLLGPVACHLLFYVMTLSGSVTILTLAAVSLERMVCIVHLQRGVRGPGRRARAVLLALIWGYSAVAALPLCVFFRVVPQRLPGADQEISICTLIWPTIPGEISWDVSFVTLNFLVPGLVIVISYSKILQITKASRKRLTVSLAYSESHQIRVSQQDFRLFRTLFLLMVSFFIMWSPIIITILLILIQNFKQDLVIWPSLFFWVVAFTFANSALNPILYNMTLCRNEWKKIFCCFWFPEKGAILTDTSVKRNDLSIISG
As to the kind of experiment: Human GPR120 calcium flux assay, Procedure Calcium A. The format is cell-based. To be noted: HEK-293 cells, FLIPR, 2500 cells/well; read-out: GPR120 Ca2+ Assay A EC50. How it is done:
These cells are first loaded with the Ca^+2 sensitive dye, Fluo-4 NR. Upon stimulation, intracellular released Ca^+2 can bind to the dye and alter its fluorescence intensity. This increase in fluorescence signal, and thus the flux in intracellular [Ca^2+], is detected and quantitated by fluorescence imaging using a FLIPR reader. The effect of the agonist is measured as a function of concentration and used to calculate an EC50 based upon a response curve.
In this procedure 2500 cells/well were employed.
A Human GPR120 clone (Genbank accession number NM_001195755.1) was placed into the pcDNA3.1 mammalian expression vector carrying the neomycin resistance gene. A stable mammalian cell was generated by placing the above clone into a HEK293 background. […] Cells were split 2 times a week to keep the cells in the log-phase growth.
In preparation for the assay, HEK cells stably transfected with Human GPR120 (2.5K cells per well in 25 uL growth medium) were seeded into 384-well plates and then incubated overnight (37° C., 5% CO2). The next day, the media was changed to 20 μL assay buffer and the cell starved for 1 h at 37° C. The dye loading solution (2× dye) was prepared using 10 mL assay buffer, 100 μL of 250 mM probenecid, 1 bottle of Component A, and 20 μl of dye in DMSO. Twenty μL of the 2× dye loading buffer was then added to each well. The plates were incubated at 37° C. for 30 min, then at room temperature for an additional 15 minutes, before performing the assay on FLIPR.
The assay was performed on a FLIPR plate reader using the following parameters. Baseline was read for 10 seconds at 1 sec intervals. The program was set to transfer 10 μL of ligand from compound plate to cell plate after baseline reading. Aspiration was executed at: 10 μL/sec speed, 4.6 μL height; Dispensing was executed at: 30 μL/sec speed, 45 μL height. After compound addition, each well was read for 300 sec, with measurements collected at 1 sec intervals.
The kinetic data from the FLIPR was based upon a 5 minute window for data collection. The fluorescence of each sample well was used for individual calculations of a normalized RFU value, which was defined as maximum response minus the minimum response. […] The Fitting Equation was: Y=Bottom+(Top-Bottom)/(1+10^((Log EC50−X)*HillSlope)), where X is the log of the concentration and Y is the response.

The text below walks through data of patent US10118922B2 (Janssen Pharmaceutica NV, priority 2013, dated 2018).

Molecules are shown by their SMILES.

`COc1ccc(-c2csc(C(F)(F)F)c2COc2c(F)cc(CCCO)cc2F)cn1` [Cpd 38, 3-(3,5-difluoro-4-((4-(6-methoxypyridin-3-yl)-2-(trifluoromethyl)thiophen-3-yl)methoxy)phenyl)propan-1-ol]: the “C57 IPGTT 3 mg/kg” value with C57bl/6J Mice was −9. In addition, in the assay on C57b16 mouse, the “C57 OGTT 3 mg/kg” value is given as −44.
For the compound `CCc1ccc(-c2nsc(C(F)(F)F)c2COc2c(F)cc([C@@H]3C[C@H]3CO)cc2F)cc1` [Cpd 219, [(1R,2R)-2-(4-{[3-(4-Ethylphenyl)-5-(trifluoromethyl)isothiazol-4-yl]methoxy}-3,5-difluorophenyl)cyclopropyl]methanol], the values for the EC50 (in assay [1]; at Human GPR120 short form) were 210 nM and 690 nM, respectively.
Taken in the same sequence, the figures for `O=C(O)CCc1cc(F)c(OCc2c(-c3ccc(C4CC4)cc3)nsc2C(F)(F)F)c(F)c1` [Cpd 160, 3-(4-{[3-(4-Cyclopropylphenyl)-5-(trifluoromethyl)isothiazol-4-yl]methoxy}-3,5-difluorophenyl)propanoic acid] were 116 nM and 200 nM.
As for `COc1ccc(-c2csc(C(F)(F)F)c2COc2c(F)cc(CCC(=O)O)cc2F)cn1` [Cpd 42, 3-(3,5-difluoro-4-((4-(6-methoxypyridin-3-yl)-2-(trifluoromethyl)thiophen-3-yl)methoxy)phenyl)propanoic acid], the “C57 IPGTT 3 mg/kg” value in the assay on C57bl/6J Mice is −14. In addition, the “C57 OGTT 3 mg/kg” value in the assay on C57b16 mouse was −44.
With `CCc1ccc(-c2snc(Cl)c2COc2ccc(CCC(=O)O)c(C)c2C)cc1` [Cpd 85, 3-(4-[[3-chloro-5-(4-ethylphenyl)-1,2-thiazol-4-yl]methoxy]-2,3-dimethylphenyl)propanoic acid], in the assay on C57bl/6J Mice, the “C57 IPGTT 3 mg/kg” value is −29 and the “C57 IPGTT 10 mg/kg” value was −48. In addition, the “C57 OGTT 3 mg/kg” value in the assay on C57b16 mouse was −49.
For `OCCCc1cc(F)c(OCc2c(-c3ccc(Cl)cc3)csc2C(F)(F)F)c(F)c1` [Cpd 46, 3-(4-[[4-(4-chlorophenyl)-2-(trifluoromethyl)thiophen-3-yl]methoxy]-3,5-difluorophenyl)propan-1-ol], in that order: −26, −75 and −49.
Consider `CCc1ccc(-c2cc(F)sc2COc2c(F)cc(CCC(=O)O)cc2F)cc1` [Cpd 7], for which the EC50 in assay [1] was 209 nM; on Human GPR120 short form, 101 nM.
`Cc1c(CCC(=O)O)ccc(OCc2c(-c3ccc(Cl)cc3)nsc2C(F)(F)F)c1C` [Cpd 142, 3-(4-((3-(4-chlorophenyl)-5-(trifluoromethyl)isothiazol-4-yl)methoxy)-2,3-dimethylphenyl)propanoic acid]: in the assay on C57bl/6J Mice, the “C57 IPGTT 3 mg/kg” value is −34 and the “C57 IPGTT 10 mg/kg” value is −61. For the same compound, the “C57 OGTT 3 mg/kg” value in the assay with C57b16 mouse was −49.
Turning to `OCCCc1cc(F)c(OCc2c(-c3ccc(Cl)cc3)nsc2C(F)(F)F)c(F)c1` [Cpd 100, 3-(4-[[3-(4-chlorophenyl)-5-(trifluoromethyl)-1,2-thiazol-4-yl]methoxy]-3,5-difluorophenyl)propan-1-ol], in the assay with C57bl/6J Mice, the “C57 IPGTT 10 mg/kg” value was −42. Also, the “C57 OGTT 3 mg/kg” value with C57b16 mouse is given as −39.

For orientation: EC50 means the concentration that produces a half-maximal response.
